Converted amounts (≈) assume the structure as drawn.
What was measured:
[1] = test system: 51 clinical ExPEC isolates from companion animals and 83 porcine and bovine ETEC isolates; assay: MIC, broth micro-dilution, all animal clinical isolates; format: cell-based, Escherichia coli; conditions: ExPEC and ETEC isolates together
Experimental: A variety of Gram-negative reference strains (E. coli ATCC 25922, E. coli ATCC 10763, P. aeruginosa PAO1, P. aeruginosa ATCC 27853, A. baumannii ATCC 12457, A. baumannii ATCC 19606, K. pneumoniae ATCC 4352 and K. pneumoniae ATCC 33495) were used for initial screening and combination testing with PMB. The organisms were speciated using biochemical testing and MALDI-TOF mass spectrometry (Bruker, Preston, VIC, Australia). Activity testing of NCL259 and NCL265 was also carried out on 51 extraintestinal clinical E. coli isolates from companion animals, and 83 porcine and bovine enterotoxigenic E. coli (ETEC) isolates from the Australian Centre for Antimicrobial Resistance Ecology collection. […]
MICs for NCL259 and NCL265 (serial two-fold dilutions commencing at 256 µg/mL) were determined (in duplicate) in round bottom 96–well microtitre trays (Sarstedt 82.1582.001), using the broth micro-dilution method recommended by the Clinical and Laboratory Standards Institute (CLSI). […] The MIC for ampicillin against each isolate was determined for each test to serve as an internal quality control. The MICs of isolates were determined by visual reading and using an EnSpire Multimode Plate Reader 2300 at A600nm.

E. coli ATCC 25922 [2] = assay: MIC, broth micro-dilution; format: cell-based, Escherichia coli; conditions: Escherichia coli, ATCC25922, read-out: MIC, Single Drug
Experimental: (§1) A variety of Gram-negative reference strains (E. coli ATCC 25922, E. coli ATCC 10763, P. aeruginosa PAO1, P. aeruginosa ATCC 27853, A. baumannii ATCC 12457, A. baumannii ATCC 19606, K. pneumoniae ATCC 4352 and K. pneumoniae ATCC 33495) were used for initial screening and combination testing with PMB. The organisms were speciated using biochemical testing and MALDI-TOF mass spectrometry (Bruker, Preston, VIC, Australia). Activity testing of NCL259 and NCL265 was also carried out on 51 extraintestinal clinical E. coli isolates from companion animals, and 83 porcine and bovine enterotoxigenic E. coli (ETEC) isolates from the Australian Centre for Antimicrobial Resistance Ecology collection. E. coli wild-type (BW 25113) and its mutant BW 25113∆AcrB, in which the inner membrane component AcrB of the tripartite multidrug efflux system AcrA/AcrB/TolC has been deleted, were obtained from the bacterial collection held at Health and Biomedical Innovation, Clinical and Health Sciences, The University of South Australia. All isolates were cultured on sheep blood agar (SBA) plates at 37 °C for 18 h before being subcultured into Luria Bertaini (LB) (Oxoid, Scoresby, VIC, Australia) broth and grown to A600nm = 0.5 (equivalent to approx. 1.5 × 10^8 colony-forming units (CFU)/mL).
(§2) MICs for NCL259 and NCL265 (serial two-fold dilutions commencing at 256 µg/mL) were determined (in duplicate) in round bottom 96–well microtitre trays (Sarstedt 82.1582.001), using the broth micro-dilution method recommended by the Clinical and Laboratory Standards Institute (CLSI). We have shown previously that robenidine can chelate calcium ions from cation-adjusted Mueller-Hinton broth, which causes the loss of activity of robenidine. Therefore, LB broth was used in this study. Additionally, considering the low solubility of robenidine and its analogues in aqueous solutions, two-fold serial dilutions of stock solutions of these compounds were prepared in 100% DMSO [21]. The MIC for ampicillin against each isolate was determined for each test to serve as an internal quality control. The MICs of isolates were determined by visual reading and using an EnSpire Multimode Plate Reader 2300 at A600nm.

E. coli ATCC 10763 [3] = assay: MIC, broth micro-dilution; format: cell-based, Escherichia coli; conditions: Escherichia coli, ATCC10763, read-out: MIC, Single Drug
Experimental: as §1, §2

[4] = test system: E. coli-type strains ATCC 11229 and ATCC 25922; parameters: method as in PMID 30318716, PMID 31312589; conditions: E. coli ATCC 11229 and ATCC 25922; cited from earlier work
E. coli ATCC 25922 [5] = assay: Checkerboard assay with PMB; format: cell-based, Escherichia coli; conditions: for MIC, Combination: NCL259 or NCL265 with PMB; for Combination Effect / FICI: with PMB
Experimental: (§3) MICs of NCL259 or NCL265 in the presence of the efflux pump inhibitor, PAβN were determined using a checkerboard assay. […] Briefly, a two-fold serial dilution of each antimicrobial solution was prepared in its appropriate solvent (e.g., DMSO for robenidine analogues and Milli-Q water for PAβN), and 1 μL of each dilution was added from wells 12 to 3 (12.8–0.25 μg/mL for robenidine analogues, and 32–2 μg/mL for PAβN). Thereafter, 89 μL of LB broth was added to each well followed by the addition of 10 μL of bacterial suspension (1–5 × 10^6 CFU/mL) to each well. In this manner, the final concentration of DMSO in each well was 1%. The plate was subsequently incubated at 37 °C for 24 h. The resazurin assay was used for assessment of drug susceptibility of NCL259 and NCL265 (Supplementary Table S1–S6). The same method was also used to test the MICs of NCL259 or NCL265 in the presence of PMB against a range of Gram-negative reference strains (E. coli ATCC 25922, E. coli ATCC 10763, P. aeruginosa PAO1, P. aeruginosa ATCC 27853, A. baumannii ATCC 12457, A. baumannii ATCC 19606, K. pneumoniae ATCC 4352 and K. pneumoniae ATCC 33495). Stock solutions were prepared prior to use (25.6–0.25 mg/mL for robenidine analogues; 12.8–0.25 mg/mL for PMB). The interaction of two antibiotics was calculated as the fractional inhibitory concentration index (FICI) using the following formula:(1) FICI=MICA in combination/MICA alone+MICB in combination/MICB alone where A is NCL259 or NCL265 and B is PAβN or PMB. According to FICI calculations, the interaction between two compounds were interpreted as follows: synergistic (FICI ≤ 0.5); additive or partially synergistic (0.5 < FICI ≤ 1); indifferent (1 < FICI ≤ 4); and antagonistic (FICI > 4), as described previously. The dose reduction index (DRI) was used to describe the difference between the effective doses of NCL259 or NCL265 in combination with PMB or PAβN in comparison to their individual doses, using the following formula:(2) DRI=MICA alone/MICA in combination
(§4) Evaluation of DRI is important clinically because it can allow the dose of a potentially toxic drug to be lowered in combination with another compound without reducing the drug’s efficacy. A DRI higher than 1 is viewed as beneficial.

E. coli ATCC 10763 [6] = assay: Checkerboard assay with PMB; format: cell-based, Escherichia coli; conditions: for MIC, Combination: NCL259 or NCL265 with PMB; for Combination Effect / FICI: with PMB
Experimental: as §3, §4

E. coli BW 25113 (∆AcrB) = assay: MIC, efflux-pump mutant; format: cell-based, Escherichia coli; conditions: for reduction of MIC in the ∆AcrB mutant compared to wild-type: E. coli BW 25113 ∆AcrB vs wild-type parent; for MIC: Escherichia coli, read-out: MIC Values
Experimental: as §1, §2

[7] = test system: Caco-2 (human colorectal adenocarcinoma cell line); assay: In vitro cytotoxicity, WST-1; format: cell-based; conditions: Caco-2, 24 h
A. baumannii ATCC 19606 = assay: Checkerboard assay with PMB; format: cell-based, Acinetobacter baumannii; conditions: for MIC, Combination: NCL259 or NCL265 with PMB; for Combination Effect / FICI: with PMB
Experimental: as §3, §4

A. baumannii ATCC 12457 = assay: Checkerboard assay with PMB; format: cell-based, Acinetobacter baumannii; conditions: for MIC, Combination: NCL259 or NCL265 with PMB; for Combination Effect / FICI: with PMB
Experimental: as §3, §4

[8] = first of two independent experiments
[9] = second of two independent experiments

Row | SMILES | MIC range [1] | MIC (E. coli ATCC 25922 [2]) | MIC (E. coli ATCC 10763 [3]) | MBC [4] | MIC [4] | MIC, Combination (E. coli ATCC 25922 [5]) | Combination Effect (E. coli ATCC 25922 [5]) | FICI (E. coli ATCC 25922 [5]) | MIC, Combination (E. coli ATCC 10763 [6]) | Combination Effect (E. coli ATCC 10763 [6]) | FICI (E. coli ATCC 10763 [6]) | reduction of MIC in the ∆AcrB mutant compared to wild-type (E. coli BW 25113 (∆AcrB)) | MIC (E. coli BW 25113 (∆AcrB)) | IC50 [7, 8] | IC50 [7, 9] | MIC, Combination (A. baumannii ATCC 19606) | Combination Effect (A. baumannii ATCC 19606) | FICI (A. baumannii ATCC 19606) | MIC, Combination (A. baumannii ATCC 12457) | Combination Effect (A. baumannii ATCC 12457) | other results
1 | [H]/N=C(\N)NN=C(CC1CCCCC1)c1ccc(Cl)cc1 [NCL259, (E)-2-(1-(4-chlorophenyl)-2-cyclohexylethylidene)hydrazine-1-carboximidamide] | 4 to 64 µg/mL | 16 µg/mL | 64 µg/mL | 8 to 16 µg/mL | 8 to 16 µg/mL | 1 µg/mL | Additivity (additive or partially synergistic, 0.5 < FICI ≤ 1) | 0.563 | 0.25 µg/mL | Additivity (additive or partially synergistic, 0.5 < FICI ≤ 1) | 0.504 | 16 fold | 4 µg/mL | < 1 µg/mL | 3 µg/mL (≈ 10.2 µM) | 1 µg/mL | Additivity (additive or partially synergistic, 0.5 < FICI ≤ 1) | 0.625 | 1 µg/mL | Additivity (additive or partially synergistic, 0.5 < FICI ≤ 1) | Dose Reduction Index (DRI) PMB:NCL259 (E. coli ATCC 25922 [5]; PMB + NCL259): 16; Dose Reduction Index (DRI) PMB:NCL259 (E. coli ATCC 10763 [6]; PMB + NCL259): 256; Dose Reduction Index (DRI) PMB:NCL259 (A. baumannii ATCC 19606; PMB + NCL259): 8; Dose Reduction Index (DRI) PMB:NCL259 (A. baumannii ATCC 12457; PMB + NCL259): 8; FICI (A. baumannii ATCC 12457): 0.625
2 | [H]/N=C(\N)NN=C(CCCCCC)c1ccc(Cl)cc1 [NCL265, (E)-2-(1-(4-chlorophenyl)heptylidene)hydrazine-1-carboximidamide] | 2 to 16 µg/mL | 4 µg/mL | 64 µg/mL | 8 to 16 µg/mL | 8 to 16 µg/mL | 1 µg/mL | Additivity (additive or partially synergistic, 0.5 < FICI ≤ 1) | 0.75 | 0.25 µg/mL | Synergism (synergistic, FICI ≤ 0.5) | 0.254 | 16 fold | 1 µg/mL | < 1 µg/mL | < 2 µg/mL | 0.5 µg/mL | Additivity (additive or partially synergistic, 0.5 < FICI ≤ 1) | 0.75 | 0.5 µg/mL | Additivity (additive or partially synergistic, 0.5 < FICI ≤ 1) | Dose Reduction Index (DRI) PMB:NCL265 (E. coli ATCC 25922 [5]; PMB + NCL265): 4; Dose Reduction Index (DRI) PMB:NCL265 (E. coli ATCC 10763 [6]; PMB + NCL265): 256; Dose Reduction Index (DRI) PMB:NCL265 (A. baumannii ATCC 19606; PMB + NCL265): 4; Dose Reduction Index (DRI) PMB:NCL265 (A. baumannii ATCC 12457; PMB + NCL265): 4; FICI (A. baumannii ATCC 12457): 0.75

Reference: paper PMC9598656, “In Vitro Activity of Robenidine Analogues NCL259 and NCL265 against Gram-Negative Pathogens” (Antibiotics, 2022)
